23 molecules from BindingDB's records for doi:10.1016/s0960-894x(03)00205-1 (Abbott Laboratories, 2003) can be followed below.

SMILES strings stand for the structures.

The nature of this assay: Potassium channel opening activity in vitro using LtK cells transfected with Kir6.2/SUR2B exon 17.
For `Cc1ccc(C(=O)Nc2c(C(O)(C(F)(F)F)C(F)(F)F)ccc3ccccc23)cc1` [4-Methyl-N-[2-(2,2,2-trifluoro-1-hydroxy-1-trifluoromethyl-ethyl)-naphthalen-1-yl]-benzamide], the EC50 – broadly, the concentration at which the effect is half-maximal – is 76 nM.

In turn, `CC(=O)Nc1c(C(O)(C(F)(F)F)C(F)(F)F)ccc2c(O)cccc12` [N-[5-Hydroxy-2-(2,2,2-trifluoro-1-hydroxy-1-trifluoromethyl-ethyl)-naphthalen-1-yl]-acetamide] yielded an EC50 of 137 nM. As for `CC(=O)Nc1c(C(O)(C(F)(F)F)C(F)(F)F)ccc2ccccc12` [N-[2-(2,2,2-Trifluoro-1-hydroxy-1-trifluoromethyl-ethyl)-naphthalen-1-yl]-acetamide], the figure is 18 nM; as for `CCCC(C)C(=O)Nc1c(C(O)(C(F)(F)F)C(F)(F)F)ccc2ccccc12` (stereo not drawn) [2-Methyl-pentanoic acid [2-(2,2,2-trifluoro-1-hydroxy-1-trifluoromethyl-ethyl)-naphthalen-1-yl]-amide], over 10000 nM. For `O=C(Nc1c(C(O)(C(F)(F)F)C(F)(F)F)ccc2ccccc12)c1ccc(C(F)(F)F)cc1` [N-[2-(2,2,2-Trifluoro-1-hydroxy-1-trifluoromethyl-ethyl)-naphthalen-1-yl]-4-trifluoromethyl-benzamide] the value was 160 nM; for `O=C(Nc1c(C(O)(C(F)(F)F)C(F)(F)F)ccc2ccccc12)c1ccc(Cl)c(Cl)c1` [3,4-Dichloro-N-[2-(2,2,2-trifluoro-1-hydroxy-1-trifluoromethyl-ethyl)-naphthalen-1-yl]-benzamide], 194 nM; for `O=C(Nc1c(C(O)(C(F)(F)F)C(F)(F)F)ccc2ccccc12)c1cccc(F)c1` [3-Fluoro-N-[2-(2,2,2-trifluoro-1-hydroxy-1-trifluoromethyl-ethyl)-naphthalen-1-yl]-benzamide], 44 nM. As for `O=C(Nc1c(C(O)(C(F)(F)F)C(F)(F)F)ccc2ccccc12)C1CCCC1` [Cyclopentanecarboxylic acid [2-(2,2,2-trifluoro-1-hydroxy-1-trifluoromethyl-ethyl)-naphthalen-1-yl]-amide], the figure is 495 nM. On to `O=C(CC1CCCC1)Nc1c(C(O)(C(F)(F)F)C(F)(F)F)ccc2ccccc12` [2-Cyclopentyl-N-[2-(2,2,2-trifluoro-1-hydroxy-1-trifluoromethyl-ethyl)-naphthalen-1-yl]-acetamide], for which a half-maximal effect (EC50) was put at 81 nM.

Turning to `CC(=O)Nc1c(C(O)(C(F)(F)F)C(F)(F)F)ccc2cc(O)ccc12` [N-[6-Hydroxy-2-(2,2,2-trifluoro-1-hydroxy-1-trifluoromethyl-ethyl)-naphthalen-1-yl]-acetamide], the response was half-maximal at 2220 nM (EC50). This EC50 is about 27-fold higher than that of the molecule before. As for `O=C(Nc1c(C(O)(C(F)(F)F)C(F)(F)F)ccc2ccccc12)C1CCC1` [Cyclobutanecarboxylic acid [2-(2,2,2-trifluoro-1-hydroxy-1-trifluoromethyl-ethyl)-naphthalen-1-yl]-amide], the figure is 45 nM; as for `O=C(Nc1c(C(O)(C(F)(F)F)C(F)(F)F)ccc2ccccc12)c1ccccc1Cl` [2-Chloro-N-[2-(2,2,2-trifluoro-1-hydroxy-1-trifluoromethyl-ethyl)-naphthalen-1-yl]-benzamide], 2040 nM; as for `CC(C)C(=O)Nc1c(C(O)(C(F)(F)F)C(F)(F)F)ccc2ccccc12` [N-[2-(2,2,2-Trifluoro-1-hydroxy-1-trifluoromethyl-ethyl)-naphthalen-1-yl]-isobutyramide], 6630 nM. As for `O=C(NCCCCCCCl)Nc1c(C(O)(C(F)(F)F)C(F)(F)F)ccc2ccccc12` [1-(6-Chloro-hexyl)-3-[2-(2,2,2-trifluoro-1-hydroxy-1-trifluoromethyl-ethyl)-naphthalen-1-yl]-urea], the figure is 4840 nM; as for `O=C(Nc1c(C(O)(C(F)(F)F)C(F)(F)F)ccc2ccccc12)c1ccc(Cl)cc1` [4-Chloro-N-[2-(2,2,2-trifluoro-1-hydroxy-1-trifluoromethyl-ethyl)-naphthalen-1-yl]-benzamide], 570 nM; as for `O=C(Nc1c(C(O)(C(F)(F)F)C(F)(F)F)ccc2ccccc12)c1ccc(Br)cc1` [4-Bromo-N-[2-(2,2,2-trifluoro-1-hydroxy-1-trifluoromethyl-ethyl)-naphthalen-1-yl]-benzamide], 47 nM. As for `O=C(Nc1c(C(O)(C(F)(F)F)C(F)(F)F)ccc2ccccc12)c1ccc(I)cc1` [4-Iodo-N-[2-(2,2,2-trifluoro-1-hydroxy-1-trifluoromethyl-ethyl)-naphthalen-1-yl]-benzamide], the figure is 154 nM; as for `O=C(Nc1c(C(O)(C(F)(F)F)C(F)(F)F)ccc2ccccc12)c1cccc(Cl)c1` [3-Chloro-N-[2-(2,2,2-trifluoro-1-hydroxy-1-trifluoromethyl-ethyl)-naphthalen-1-yl]-benzamide], 98 nM; as for `O=C(Nc1c(C(O)(C(F)(F)F)C(F)(F)F)ccc2ccccc12)c1cc2ccccc2s1` [Benzo[b]thiophene-2-carboxylic acid [2-(2,2,2-trifluoro-1-hydroxy-1-trifluoromethyl-ethyl)-naphthalen-1-yl]-amide], over 10000 nM. With `O=C(Nc1c(C(O)(C(F)(F)F)C(F)(F)F)ccc2ccccc12)c1cnco1` [Oxazole-5-carboxylic acid [2-(2,2,2-trifluoro-1-hydroxy-1-trifluoromethyl-ethyl)-naphthalen-1-yl]-amide], the half-maximal effective concentration (EC50) came out at 24 nM. Molecule `CCC(C)C(=O)Nc1c(C(O)(C(F)(F)F)C(F)(F)F)ccc2ccccc12` (stereo not drawn) [2-Methyl-N-[2-(2,2,2-trifluoro-1-hydroxy-1-trifluoromethyl-ethyl)-naphthalen-1-yl]-butyramide] gave an EC50 of 177000 nM. As for `O=C(Nc1c(C(O)(C(F)(F)F)C(F)(F)F)ccc2ccccc12)C1CC1` [Cyclopropanecarboxylic acid [2-(2,2,2-trifluoro-1-hydroxy-1-trifluoromethyl-ethyl)-naphthalen-1-yl]-amide], the figure is 751 nM. The molecule `O=C(Nc1c(C(O)(C(F)(F)F)C(F)(F)F)ccc2ccccc12)c1cccc(C(F)(F)F)c1` [N-[2-(2,2,2-Trifluoro-1-hydroxy-1-trifluoromethyl-ethyl)-naphthalen-1-yl]-3-trifluoromethyl-benzamide] showed an EC50 of 84 nM.
